{
  "source": "patent US6585961B1",
  "about": "“Antimicrobial compositions” (priority 2001, dated 2003)",
  "key": {"[1]": {"test": "Hydrophile-lipophile balance (HLB) of surfactant", "format": "physicochemical", "settings": "for HLB Value: surfactants (2 wt. %) found to give the desired results; for HLB: Table I", "source_text": "An old and well-accepted method to determine functionality of surfactants is known as the hydrophile -lipophile balance (HLB). The HLB is an expression of the relative simultaneous attraction of a surfactant for water and for oil. The HLB of a surfactant determines the type of an emulsion that tends to be formed. It is an indicative of the behavior characteristics and not an indication of surfactant efficiency.\nWhen two or more surfactants are to be blended the HLB of the combinations is easily calculated. If x is the proportion of one surfactant having an HLB of A, and the other surfactant has an HLB of B, the HLB of the combination can be expressed for all practical purposes as xA+(1−x)B. This is a straight-line relationship. If the value of this 16 or greater, then most likely the combination will be workable."}, "[2]": {"test": "Appearance and particle size of essential oil emulsion with surfactant", "format": "physicochemical", "settings": "Table I; for Appearance: emulsion of essential oils with surfactant; for Estimated Particle Size: micelle of essential oils with surfactant", "source_text": "Since there are literally thousands of surfactants, many of which fulfill these criteria, it would be a very difficult task to examine every one of them on an individual basis. […]"}},
  "data": [
    {"compound": "CCCCCCCCCCCCOS(=O)(=O)[O-].[Na+]", "note": "[Dodecyl sulfate, sodium salt]", "values": [
      {"measurement": "HLB Value", "setting": "[1]", "result": "˜40"}
    ]},
    {"compound": "CCCCCCCCCCCCCCCCCC(=O)OCCO", "note": "[Glycol stearate LIPO EGDS, Glycol stearate]", "values": [
      {"measurement": "HLB", "setting": "[1]", "result": 2.0},
      {"measurement": "Appearance", "setting": "[2]", "result": 2, "unit": "phase"},
      {"measurement": "Estimated Particle Size", "setting": "[2]", "result": "very large^1"}
    ]},
    {"compound": "Cocamidopropyl betaine [Tego Betaine ZF]", "values": [
      {"measurement": "Appearance", "setting": "[2]", "result": "transparent"},
      {"measurement": "Estimated Particle Size", "setting": "[2]", "result": "≧0.05u"}
    ]},
    {"compound": "DL-2-pyrrolidone-5-carboxylic acid salt of ethyl N-cocoyl-L-arginate", "values": [
      {"measurement": "HLB Value", "setting": "[1]", "result": ">20"}
    ]},
    {"compound": "Glyceryl dilaurate [Glyceryl dilaurate Lexemul GDL]", "values": [
      {"measurement": "HLB", "setting": "[1]", "result": 2.4},
      {"measurement": "Appearance", "setting": "[2]", "result": "not dispersible"},
      {"measurement": "Estimated Particle Size", "setting": "[2]", "result": "very large^1"}
    ]}
  ]
}
